Results on two substances are retold here after patent US20200123208A1, “PEPTIDES AND NEMATICIDAL COMPOSITIONS” (priority 2017, published 2020).

Common to all, as to assay type: in vivo
Experiment [1] relates to Meloidogyne incognita J2s. Kind of experiment: B. subtilis and C. reinhardtii plant protection assay, M. incognita. As to conditions: tomato. As to the method:
(§1) Tomato seeds were sterilised with 2.5% NaOCl for 15 minutes, washed 5 times in ddH2O and germinated on 0.5% Murashige and Skoog plates at 23° C. […] Invasion assays were performed by mixing 500 pre-treated M. incognita or G. pallida J2s with agar slurry and a single tomato seedling (2 days post germination) in a 6 well plate. Assays were left at 23° C. for 24 hours in the case of M. incognita and at 18° C. for 24 hours in the case of G. pallida under a 16 hour light and 8 hour darkness cycle. Seedlings were stained using acid fuschin [69] and the number of nematodes within the roots counted.
B. subtilis were grown overnight in LB media containing ampicillin (100 μg/ml) at 37° C. with shaking, and harvested in the log phase of growth determined by measuring OD600nm. Five ml of culture at 0.5 OD was spun down and the pellet mixed with 3 ml of agar slurry and 500 J2s from either G. pallida or M. incognita. C. reinhardtii clones were grown at 23° C. with shaking, cultures in the log phase were measured at OD750 and 5 ml of culture at 0.5 OD was pelleted by centrifugation. C. reinhardtii pellets were mixed with 3 ml of agar slurry and 500 J2s from either G. pallida or M. incognita. Plant invasion assays were performed as described above.
uNLP secretion inserts, and vector pChlamy_3 were digested using Kpnl/Xbal (New England Biolabs, USA), ligated using T4 ligase (New England Biolabs, USA), and cloned into Escherichia coli One Shot® TOP10 chemically competent cells (Life Technologies, USA) following manufacturer's instructions. Ampicillin (Sigma Aldrich, USA) was used to select E. coli containing the pChlamy_3 plasmid, which was subsequently extracted using the High Pure Plasmid Isolation Kit (Roche) and sequenced (Eurofins Genomics, UK) to identify correct clones. C. reinhardtii was transformed by electroporation following manufacturer's instructions (GeneArt® Chlamydomonas Engineering Kit, Life Technologies) and individual colonies grown on TAP-Agar-Hygromycin plates (10 μg/mL) (Sigma Aldrich, USA) at 23° C. Colonies were picked and grown at 23° C. in 100 ml TAP growth media (Invitrogen, USA) with constant orbital agitation. qRT-PCR was performed to identify clones with the highest level of uNLP expression, which were then selected for downstream assays (pChlamy universal FWD: […], nlp-15b REV: CTACTAGTCGAGGCCGGTA; Mi-nlp-9f REV: GAACGGGCGGATGAAGTAG).
uNLP secretion inserts, and vector pBE-S were digested using Xbal/Mlul (New England Biolabs, USA), ligated using T4 ligase (New England Biolabs, USA), and cloned into E. coli One Shot® TOP10 chemically competent cells (Life Technologies, USA) following manufacturer's instructions. […]

Experiment [2] concerns Meloidogyne incognita infective stage juveniles (J2s). The experiment can be described thus: Chemosensory (chemotaxis) assay towards root exudate, M. incognita J2s. The following applies: M. incognita J2s, 100 μM uNLP, 24 h; mean+/-SEM. As to the method:
(§2) Predicted uNLPs from both M. incognita and G. pallida were synthesised by EZBiolab and dissolved into pH adjusted ddH2O to make a 5 mM stock which was aliquoted and stored at −20° C. J2s of both M. incognita and G. pallida were incubated for 24 hours in 200 μl of each peptide in a 24 well plate (SPL Lifesciences, South Korea) at a defined concentration.
A 60 mm Petri dish was divided into two segments, a positive and a negative side, with a 0.5 cm ‘dead zone’ either side of the centre point. The petri dish was filled with 15 ml of 0.25% w/v agar which was allowed to solidify. 3 ml of 0.25% w/v agar slurry in spring water (pH 7, agitated with a magnetic stirrer for several hours to give a smooth consistency) was added to the petri dish and spread evenly over the surface. Root diffusate (attractant) and water only (control) 0.25% agar plugs were embedded in the agar slurry, either side of the assay arena. Root diffusate was collected from 10 tomato plants, aged 3-6 weeks in 1 litre pots, by pouring 500 ml of ddH2O through the soil three times. Diffusate from each plant was combined, filter sterilised and stored at 4° C. for a maximum of 1 month. Root diffusate agar plugs were made by melting 1.25% agar in ddH2O, cooling to 50° C. before mixing with 4 parts of root diffusate. The agar was then allowed to solidify at room temperature. 100 uNLP pre-treated M. incognita or G. pallida J2s were added by pipette to the centre of the plate. J2s which moved out of the ‘dead zone’ after 3 hours were counted and their location (+/−) scored. The distribution of J2s were used to create a chemotaxis index for each plate, which formed one replicate, a total of 10 replicates where completed for each uNLP treatment.

Experiment [3] relates to mixed-stage Caenorhabditis elegans. Kind of experiment: C. elegans chemotaxis assay (non-target nematode). As to conditions: 100 μM, 24 h, no statistically significant impact; for chemotaxis index (Cl) towards sodium acetate: control 0.4269; for chemotaxis index (Cl) towards pyrazine: control 0.4904; for chemotaxis index (Cl) towards diacetyl: control 0.6638; for chemotaxis index (Cl) towards benzaldehyde: control 0.7026. As to the method:
C. elegans wild-type N2 Bristol strain were obtained from the C. elegans Genomics Center and maintained on a Escherichia coli (strain OP50) lawn on nematode growth medium (NGM) agar plates (3 g/l NaCl, 17 g/l agar, 2.5 g/l peptone, 5 mg/l cholesterol, 25 mM KH2PO4 (pH 6.0), 1 mM CaCl2, 1 mM MgSO4) at 20° C.. Chemotaxis assays were performed in a 9 cm diameter Petri dish on NGM agar which was split into a positive and negative side with a central ‘dead zone’ of 1.5 cm diameter. 100 mixed-staged C. elegans were washed three times in M9 buffer and soaked in 100 μM PPN uNLP, or M9 vehicle control for 24 hours. 2 μl of 50 mM sodium acetate, 0.5% pyrazine, 0.5% benzaldehyde or 0.5% diacetyl was spotted onto the positive side, 2 μl of ddH2O was spotted onto the negative side. Pyrazine, benzaldehyde and diacetyl volatile attractants were assayed immediately whereas the water soluble sodium acetate was assayed 18 hours following addition to the plate. Assays were maintained in the dark at 20° C., and counted after 1 hour.

The test system of experiment [4] is Steinernema carpocapsae infective juveniles. Kind of experiment: S. carpocapsae host-finding assay (non-target nematode). The following applies: S. carpocapsae IJs, 100 μM, 24 h; no statistically significant impact; control 0.2315. As to the method: S. carpocapsae were cultured in Galleria mellonella at 23° C. Infective juveniles (IJs) were collected using a White trap in PBS. Freshly emerged IJs were used for each assay. 100 IJs were incubated for 24 hours in 100 μM of selected uNLPs, and host-finding assays performed as in Morris et al..

Experiment [5] deals with Meloidogyne incognita J2s. The experiment can be described thus: Tomato invasion assay, M. incognita J2s. The following applies: 100 μM uNLP, 24 h, tomato seedlings, normalised to negative control. As to the method: as §2, §1
The subject of experiment [6] is Meloidogyne incognita J2s. Kind of experiment: Serotonin-induced stylet thrusting assay, M. incognita J2s. As to conditions: 100 μM uNLP, 24 h, 5 mM serotonin. Here is the method:
as §2
Stylet thrusting assays where performed by incubating 100 M. incognita or G. pallida J2s for 15 minute in 5 mM or 2 mM serotonin (Sigma Aldrich, USA), respectively. J2s were placed on a glass slide and stylet thrusts were counted for randomly selected J2s, for 1 minute each. Counting took place for a maximum of 15 minutes. Longer incubations yielded inconsistent results. At least 30 J2s were counted for each neuropeptide treatment.

Take “GGGRYFIRPFADQ [Mi-NLP-9f, predicted unamidated NLP of Meloidogyne incognita]”: the “M. incognita invasion relative to untransformed C. reinhardtii” value in experiment [1] (C. reinhardtii cultures secreting the uNLP) came to 10.32%+/−10.32. In addition, in experiment [2], the “chemotaxis index (Cl) towards root exudate” value is reported as −0.26+/−0.224. In experiment [3], the “chemotaxis index (Cl) towards sodium acetate” value is 0.5261+/−0.064, the “chemotaxis index (Cl) towards pyrazine” value is given as 0.4599+/−0.087, the “chemotaxis index (Cl) towards diacetyl” value is listed as 0.6+/−0.092 and the “chemotaxis index (Cl) towards benzaldehyde” value is 0.7463+/−0.047. In experiment [4], the “insect host-finding index (Cl) towards Galleria mellonella” value was 0.2462+/−0.070. In addition, the “host invasion compared to controls” value in experiment [5] was 28.22%+/−5.253.
Consider “MVSWQPV [Mi-NLP-40, predicted unamidated NLP of Meloidogyne incognita]”, for which, in experiment [1] (B. subtilis cultures secreting the uNLP), the “M. incognita invasion relative to control” value is listed as 23.72%+/−5.448. Besides, in experiment [2], the “chemotaxis index (Cl) towards root exudate” value is reported as −0.04+/−0.04726. Further, in experiment [3], the “chemotaxis index (Cl) towards sodium acetate” value was 0.4820+/−0.115, the “chemotaxis index (Cl) towards pyrazine” value is reported as 0.5018+/−0.039, the “chemotaxis index (Cl) towards diacetyl” value was 0.5858+/−0.097 and the “chemotaxis index (Cl) towards benzaldehyde” value is reported as 0.6686+/−0.065. Moreover, the “insect host-finding index (Cl) towards Galleria mellonella” value in experiment [4] was 0.3057+/−0.082. In experiment [6], the “rate of serotonergic-induced stylet thrusting compared with controls” value came out at 210%+/−21.35.
